Data: PubChem BioAssay AID248 (DTP/NCI, 2004)
Several values for one entry are separate records, joined by “and”; a condition that tells them apart may be missing. Equal values may be shown once. Toxic doses and inconclusive results are not listed. Rule as the data show it: active = T/C of 150% or more; inactive = T/C below 125%.

System: L1210 leukemia ip in BDF1 mice, survival T/C
Assay: NCI In Vivo Anticancer Drug Screen. Data for tumor model L1210 Leukemia (intraperitoneal) in B6D2F1 (BDF1) mice
Settings: endpoint: mean survival time, higher = longer survival
Summary of the method: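 In this screen, tumor-bearing mice given compound are compared to those given vehicle, and their survival values are reported as a treated-to-control quotient.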

[1] = dose: 100.0 mg/kg/injection, schedule: Q01DX001 (ip), vehicle: Klucel (hydroxypropylcellulose) (HPC)
[2] = dose: 100.0 mg/kg/injection, schedule: Q01DX009 (ip), vehicle: Klucel (hydroxypropylcellulose) (HPC)
[3] = dose: 100.0 mg/kg/injection, schedule: Q04DX003 (ip), vehicle: Klucel (hydroxypropylcellulose) (HPC)
[4] = dose: 200.0 mg/kg/injection, schedule: Q01DX001 (ip), vehicle: Klucel (hydroxypropylcellulose) (HPC)
[5] = dose: 200.0 mg/kg/injection, schedule: Q01DX009 (ip), vehicle: Klucel (hydroxypropylcellulose) (HPC)
[6] = dose: 200.0 mg/kg/injection, schedule: Q04DX003 (ip), vehicle: Klucel (hydroxypropylcellulose) (HPC)
[7] = dose: 400.0 mg/kg/injection, schedule: Q01DX001 (ip), vehicle: Klucel (hydroxypropylcellulose) (HPC)
[8] = dose: 400.0 mg/kg/injection, schedule: Q01DX009 (ip), vehicle: Klucel (hydroxypropylcellulose) (HPC)
[9] = dose: 400.0 mg/kg/injection, schedule: Q04DX003 (ip), vehicle: Klucel (hydroxypropylcellulose) (HPC)
[10] = dose: 100.0 mg/kg/injection, schedule: Q04DX003 (ip), vehicle: saline with Tween-80
[11] = dose: 200.0 mg/kg/injection, schedule: Q04DX003 (ip), vehicle: saline with Tween-80
[12] = dose: 400.0 mg/kg/injection, schedule: Q04DX003 (ip), vehicle: saline with Tween-80
[13] = dose: 25.0 mg/kg/injection, schedule: Q01DX009 (ip), vehicle: saline with Tween-80
[14] = dose: 50.0 mg/kg/injection, schedule: Q01DX009 (ip), vehicle: saline with Tween-80
[15] = dose: 100.0 mg/kg/injection, schedule: Q01DX009 (ip), vehicle: saline with Tween-80

Measured: T/C

O=[N+]([O-])c1cc(S(=O)(=O)F)ccc1F
inactive: dose: 0.07 mg/kg/injection, schedule: Q01DX009 (ip), vehicle: carboxymethylcellulose (CMC) 97 % of control | dose: 0.15 mg/kg/injection, schedule: Q01DX009 (ip), vehicle: carboxymethylcellulose (CMC) 100 % of control | dose: 0.31 mg/kg/injection, schedule: Q01DX009 (ip), vehicle: carboxymethylcellulose (CMC) 100 % of control | dose: 0.31 mg/kg/injection, schedule: Q04DX003 (ip), vehicle: carboxymethylcellulose (CMC) 92 % of control | dose: 0.46 mg/kg/injection, schedule: Q01DX009 (ip), vehicle: carboxymethylcellulose (CMC) 103 % of control | dose: 0.62 mg/kg/injection, schedule: Q04DX003 (ip), vehicle: carboxymethylcellulose (CMC) 92 % of control | dose: 0.7 mg/kg/injection, schedule: Q01DX009 (ip), vehicle: carboxymethylcellulose (CMC) 96 % of control | dose: 1.05 mg/kg/injection, schedule: Q01DX009 (ip), vehicle: carboxymethylcellulose (CMC) 92 % of control | dose: 1.5 mg/kg/injection, schedule: Q01DX009 (ip), vehicle: other 94 % of control | dose: 2.3 mg/kg/injection, schedule: Q01DX009 (ip), vehicle: other 89 % of control | dose: 3.4 mg/kg/injection, schedule: Q01DX009 (ip), vehicle: other 89 % of control | dose: 5.0 mg/kg/injection, schedule: Q01DX009 (ip), vehicle: other 87 % of control | dose: 10.0 mg/kg/injection, schedule: Q01DX001 (ip), vehicle: carboxymethylcellulose (CMC) 90 % of control

CC(Cl)(/N=N\C(C)(Cl)c1ccc(Cl)cc1)c1ccc(Cl)cc1 (centres undefined)
inactive: [1] 96 % of control | [2] 92 % of control | [3] 103 % of control | [4] 92 % of control | [5] 106 % of control | [6] 103 % of control | [7] 96 % of control | [8] 98 % of control | [9] 93 % of control

O=[N+]([O-])c1cc(Cl)ccc1O
inactive: [10] 91 % of control | [11] 107 % of control | [12] 96 % of control

CSc1ccc(OC2CCCCC2OS(C)(=O)=O)cc1 (centres undefined)
inactive: [1] 102 % of control | [2] 98 % of control | [3] 107 % of control | [4] 102 % of control | [5] 98 % of control | [6] 91 % of control | [7] 94 % of control | [8] 96 % of control | [9] 96 % of control

CS(=O)(=O)OCC1C2CCC(CC2)C1COS(C)(=O)=O (centres undefined)
inactive: [3] 100 % of control | [6] 103 % of control | [9] 102 % of control

CC(=O)Nc1ccc(N)c(NC(C)=O)n1
inactive: dose: 100.0 mg/kg/injection, schedule: Q04DX003 (ip), vehicle: saline 97 % of control | dose: 200.0 mg/kg/injection, schedule: Q04DX003 (ip), vehicle: saline 95 % of control | dose: 400.0 mg/kg/injection, schedule: Q04DX003 (ip), vehicle: saline 109 % of control

CCCCCCCCCCCCCCCCCCNC(=O)Nc1ccc(OC)cc1OC
inactive: dose: 100.0 mg/kg/injection, schedule: Q04DX002 (ip), vehicle: Klucel (hydroxypropylcellulose) (HPC) 101 % of control | dose: 200.0 mg/kg/injection, schedule: Q04DX002 (ip), vehicle: Klucel (hydroxypropylcellulose) (HPC) 90 % of control | dose: 400.0 mg/kg/injection, schedule: Q04DX002 (ip), vehicle: Klucel (hydroxypropylcellulose) (HPC) 90 % of control

O=C(N/N=C/C1CC2C=CC1C2)c1ccncc1 (centres undefined)
inactive: [13] 100 % of control | [14] 102 % of control | [15] 95 % of control and 103 % of control

O=C(Nc1ccccc1)OCC(CN1CCCCC1)OC(=O)Nc1ccccc1 (centres undefined)
inactive: dose: 12.5 mg/kg/injection, schedule: Q01DX009 (ip), vehicle: saline with Tween-80 97 % of control | [13] 99 % of control | [14] 99 % of control | [15] 86 % of control | [10] 98 % of control | dose: 200.0 mg/kg/injection, schedule: Q01DX009 (ip), vehicle: saline with Tween-80 91 % of control | [11] 90 % of control

O=C(N/N=C\c1cccc([N+](=O)[O-])c1)N/N=C/c1cccc([N+](=O)[O-])c1
inactive: dose: 6.25 mg/kg/injection, schedule: Q04DX003 (ip), vehicle: saline with Tween-80 92 % of control | dose: 12.5 mg/kg/injection, schedule: Q04DX003 (ip), vehicle: saline with Tween-80 97 % of control | dose: 25.0 mg/kg/injection, schedule: Q04DX003 (ip), vehicle: saline with Tween-80 87 % of control

CCCOCCOCCOC(C)Oc1ccc(C(=O)OC)cc1 (centres undefined)
inactive: dose: 100.0 mg/kg/injection, schedule: Q04DX002 (ip), vehicle: saline 101 % of control | dose: 200.0 mg/kg/injection, schedule: Q04DX002 (ip), vehicle: saline 101 % of control | dose: 400.0 mg/kg/injection, schedule: Q04DX002 (ip), vehicle: saline 99 % of control

Cc1ccc(NC(=O)Oc2ccc(-c3ccccc3)cc2)cc1NC(=O)Oc1ccc(-c2ccccc2)cc1
inactive: [15] 91 % of control | dose: 400.0 mg/kg/injection, schedule: Q01DX009 (ip), vehicle: saline with Tween-80 96 % of control

CC(=O)Nc1nc(Cl)c([N+](=O)[O-])c(Cl)n1
inactive: dose: 3.12 mg/kg/injection, schedule: Q04DX002 (ip), vehicle: Klucel (hydroxypropylcellulose) (HPC) 103 % of control | dose: 6.25 mg/kg/injection, schedule: Q04DX002 (ip), vehicle: Klucel (hydroxypropylcellulose) (HPC) 100 % of control | dose: 12.5 mg/kg/injection, schedule: Q01DX001 (ip), vehicle: Klucel (hydroxypropylcellulose) (HPC) 92 % of control | dose: 12.5 mg/kg/injection, schedule: Q04DX002 (ip), vehicle: Klucel (hydroxypropylcellulose) (HPC) 103 % of control

COc1ccc(OC)c2c(OC(C)=O)c3ccccc3c(OC(C)=O)c12
inactive: dose: 50.0 mg/kg/injection, schedule: Q01DX001 (ip), vehicle: carboxymethylcellulose (CMC) 98 % of control | dose: 100.0 mg/kg/injection, schedule: Q01DX001 (ip), vehicle: carboxymethylcellulose (CMC) 108 % of control | dose: 200.0 mg/kg/injection, schedule: Q01DX001 (ip), vehicle: carboxymethylcellulose (CMC) 98 % of control | dose: 400.0 mg/kg/injection, schedule: Q01DX001 (ip), vehicle: carboxymethylcellulose (CMC) 110 % of control

Clc1ccc(/C(=[C](\[Hg]/[C](=C(\c2ccccc2)c2ccc(Cl)cc2)c2ccccc2)c2ccccc2)c2ccccc2)cc1
inactive: [2] 96 % of control | [3] 101 % of control | [5] 102 % of control | [6] 107 % of control | [8] 96 % of control | [9] 102 % of control

Cc1ccc(NC(=O)Oc2ccc(Br)cc2Br)c(Cl)c1
inactive: [13] 104 % of control and 106 % of control | [14] 101 % of control and 105 % of control | dose: 100.0 mg/kg/injection, schedule: Q04DX002 (ip), vehicle: saline with Tween-80 101 % of control and 107 % of control | [10] 103 % of control | dose: 200.0 mg/kg/injection, schedule: Q04DX002 (ip), vehicle: saline with Tween-80 97 % of control and 101 % of control | [11] 113 % of control | dose: 400.0 mg/kg/injection, schedule: Q04DX002 (ip), vehicle: saline with Tween-80 103 % of control and 111 % of control | [12] 103 % of control

c1cc[c]([Sn]([S]c2nc3ccccc3s2)([c]2ccccc2)[c]2ccccc2)cc1
inactive: dose: 5.0 mg/kg/injection, schedule: Q04DX002 (ip), vehicle: saline with Tween-80 104 % of control | dose: 10.0 mg/kg/injection, schedule: Q04DX002 (ip), vehicle: saline with Tween-80 97 % of control | dose: 20.0 mg/kg/injection, schedule: Q04DX002 (ip), vehicle: saline with Tween-80 97 % of control

CCCCn1c(C)cc2c(c1=O)COC(=O)C2(O)CC (centres undefined)
inactive: dose: 2.5 mg/kg/injection, schedule: Q04DX003 (ip), vehicle: saline 101 % of control | dose: 5.0 mg/kg/injection, schedule: Q04DX003 (ip), vehicle: saline 98 % of control | dose: 10.0 mg/kg/injection, schedule: Q04DX003 (ip), vehicle: saline 100 % of control | dose: 20.0 mg/kg/injection, schedule: Q04DX003 (ip), vehicle: saline 96 % of control | dose: 40.0 mg/kg/injection, schedule: Q04DX003 (ip), vehicle: saline 94 % of control

CC1(C)CC1(Br)c1ccccc1 (centres undefined)
inactive: dose: 100.0 mg/kg/injection, schedule: Q01DX001 (ip), vehicle: saline 96 % of control | dose: 200.0 mg/kg/injection, schedule: Q01DX001 (ip), vehicle: saline 96 % of control | dose: 400.0 mg/kg/injection, schedule: Q01DX001 (ip), vehicle: saline 101 % of control
